In patent publication US4123532A, “Method for treatment of asthma” (E. R. Squibb & Sons, Inc., priority 1977, dated 1978):
Read-outs that look alike come from different tables or passages of the source.

System: reaginic antibody-induced passive cutaneous anaphylaxis (PCA) reaction
Assay: Passive Cutaneous Anaphylaxis (PCA) Test in rats (anti-asthma activity)
Assay type: in vivo, rat
Conditions: for anti-asthma activity: rat PCA testing, result in words; for ED50: Rattus norvegicus, read-out: ID50 (the source's name)
Excerpt: The skin of rats is first sensitized by the intradermal injection of reaginic (allergic) antibody. Twenty-four hours later, the animals receive a challenge injection of antigen together with Evan's blue dye given intravenously. The antigen, thus injected directly into the circulation, encounters the antibody in the skin and an "allergic reaction" occurs which is identified by the formation of intracutaneous edema. The edema is marked by the presence of the Evan's blue dye in the circulation.
The anti-asthmatic activity of these compounds is determined by the reaginic antibody-induced passive cutaneous anaphylaxis (PCA) reaction in rats.
In this test, 0.05 ml of appropriately diluted whole rat serum containing IgE antibody is injected intradermally into the skin of a rat. The next day, the animals are dosed with the test compound ten minutes prior to the i.v. challenge injection of antigen and Evan's blue dye. Thirty minutes later, the animals are sacrificed, the skin reflected and the reaction quantitated by measuring the dye-marked edema and scoring the color intensity of the reaction.

[1] = IP, 75 mpk, rats dosed ten min. prior to challenge
[2] = IP, rats dosed ten min. prior to challenge

CCOC(=O)c1c(-c2ccccc2)nn2c(=O)[nH]c3ccccc3c12 [5,6-Dihydro-5-oxo-2-phenylpyrazolo[1,5-c]quinazoline-1-carboxylic acid, ethyl ester]
Maximum % inhibition [1]: 42% | anti-asthma activity: has anti-asthma activity

CCCCOC(=O)c1cc2c3ccccc3[nH]c(=O)n2n1 [5,6-Dihydro-5-oxopyrazolo[1,5-c]-quinazoline-2-carboxylic acid, n-butyl ester]
Maximum % inhibition (IP, (150 mpk) (10 mg/kg) both printed, rats dosed ten min. prior to challenge): 78% | ED50 [2]: 9 mg/kg | anti-asthma activity: has anti-asthma activity

CCOC(=O)c1cc2c3ccccc3[nH]c(=O)n2n1 [5,6-Dihydro-5-oxopyrazolo[1,5-c]quinazoline-2-carboxylic acid, ethyl ester]
Maximum % inhibition (IP, 10 mg/kg, rats dosed ten min. prior to challenge): 94% | Maximum % inhibition (PO, 9 mg/kg, rats dosed ten min. prior to challenge): 95% | ED50 [2]: 2 mg/kg | ED50 (PO (orally), rats dosed ten min. prior to challenge): 3 mg/kg | anti-asthma activity: has anti-asthma activity

CCOC(=O)c1cc2c3cc(Cl)ccc3[nH]c(=O)n2n1 [9-Chloro-5,6-dihydro-5-oxopyrazolo[1,5-c]quinazoline-2-carboxylic acid, ethyl ester]
Maximum % inhibition [1]: 93% | ED50 [2]: 9 mg/kg | anti-asthma activity: has anti-asthma activity

COC(=O)c1nn2c(=O)[nH]c3ccccc3c2c1C(=O)OC [Example 11]
% Inhibition (PCA, IP, 150 mpk): 21%

CC(=O)c1cc2c3ccccc3[nH]c(=O)n2n1 [Example 12]
% Inhibition (PCA, IP, 75 mpk): 32%

O=C(O)c1cc2c3ccccc3[nH]c(=O)n2n1 [Example 13, 5,6-Dihydro-5-oxopyrazolo-[1,5-c]quinazoline-2-carboxylic acid]
% Inhibition (PCA, IP, 75 mpk): 36%

CC(=O)c1cc2c3ccccc3n(C)c(=O)n2n1 [Example 14]
% Inhibition (PCA, IP, 150 mpk): 32%

CCOC(=O)c1nn2c(=O)[nH]c3ccccc3c2c1C [Example 15]
% Inhibition (PCA, IP, 150 mpk): 63% | ED50 (PCA, IP): 58 mg/kg

O=C(c1ccccc1)c1cc2c3ccccc3[nH]c(=O)n2n1 [Example 16]
% Inhibition (PCA, IP, 150 mpk): 37%

CCOC(=O)c1cc2c3cc(OC)ccc3[nH]c(=O)n2n1 [Example 17]
% Inhibition (PCA, IP, 25 mpk): 90%

O=c1[nH]c2ccccc2c2ccnn12 [Pyrazolo[1,5-c]quinazoline-5(6H)-one, Pyrazolo[1,5-c]quinazolin-5(6H)-one]
Maximum % inhibition [1]: 59% | anti-asthma activity: has anti-asthma activity
